# Source: ChEMBL document CHEMBL3244030, “2-Methoxyphenylethanolamines, potential beta-adrenergic blocking agents” (J Med Chem, 1978)
# Active and inactive are the calls of the source. The rule behind the calls is not given here.
# Assays:
# [1] = molecular target: Beta-1 adrenergic receptor (Cavia porcellus) (UniProt B0FL73); experiment: Competitive inhibition of beta1 adrenoceptor in guinea pig atrium assessed as inhibition of isoproterenol-induced response after 20 mins by Schild plot analysis; settings: Cardiac atrium
# Sequence of Beta-1 adrenergic receptor (Cavia porcellus) (B0FL73 1-467): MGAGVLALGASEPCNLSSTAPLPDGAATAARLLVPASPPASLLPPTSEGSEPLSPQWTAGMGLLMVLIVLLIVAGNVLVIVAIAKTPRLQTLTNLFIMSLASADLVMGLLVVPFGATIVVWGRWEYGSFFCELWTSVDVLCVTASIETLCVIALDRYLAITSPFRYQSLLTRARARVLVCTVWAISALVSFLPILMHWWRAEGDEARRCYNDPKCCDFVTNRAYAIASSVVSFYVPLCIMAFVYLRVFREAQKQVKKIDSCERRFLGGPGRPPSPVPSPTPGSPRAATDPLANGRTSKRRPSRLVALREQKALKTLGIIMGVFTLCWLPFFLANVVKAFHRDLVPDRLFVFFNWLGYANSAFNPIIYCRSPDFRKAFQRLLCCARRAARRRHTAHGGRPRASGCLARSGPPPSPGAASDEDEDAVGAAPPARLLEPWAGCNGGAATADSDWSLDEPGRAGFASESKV
# [2] = molecular target: Beta-1 adrenergic receptor (Cavia porcellus, UniProt B0FL73); experiment: Antagonist activity at beta1 adrenoceptor in guinea pig atrium assessed as inhibition of isoproterenol-induced response after 20 mins; design: species or system Cardiac atrium; settings: read-out: pA2 (converted)
# Sequence of Beta-1 adrenergic receptor (B0FL73 whole entry): as the sequence (B0FL73 1-467) above
# [3] = molecular target: Beta-2 adrenergic receptor (Cavia porcellus, UniProt Q8K4Z4); experiment: Antagonist activity at beta2 adrenoceptor in guinea pig trachea assessed as inhibition of isoproterenol-induced response after 20 mins; settings: read-out: pA2 (converted)
# Sequence of Beta-2 adrenergic receptor (Q8K4Z4 whole entry): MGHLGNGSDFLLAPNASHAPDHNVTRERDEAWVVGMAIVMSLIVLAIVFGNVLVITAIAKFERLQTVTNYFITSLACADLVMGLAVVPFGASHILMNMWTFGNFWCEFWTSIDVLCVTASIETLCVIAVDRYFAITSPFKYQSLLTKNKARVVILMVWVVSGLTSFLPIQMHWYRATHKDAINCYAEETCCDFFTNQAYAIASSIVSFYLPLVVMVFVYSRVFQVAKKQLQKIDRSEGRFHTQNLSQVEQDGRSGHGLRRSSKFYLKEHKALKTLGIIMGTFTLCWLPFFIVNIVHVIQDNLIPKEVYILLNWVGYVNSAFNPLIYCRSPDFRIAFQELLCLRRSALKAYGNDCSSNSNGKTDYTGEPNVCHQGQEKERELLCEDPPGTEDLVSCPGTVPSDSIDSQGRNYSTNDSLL
# [4] = molecular target: Beta-1 adrenergic receptor (Cavia porcellus) (UniProt B0FL73); experiment: Intrinsic activity at beta1 adrenoceptor in guinea pig atrium relative to isoproterenol; settings: Cardiac atrium
# [5] = molecular target: Beta-2 adrenergic receptor (Cavia porcellus) (UniProt Q8K4Z4); experiment: Intrinsic activity at beta2 adrenoceptor in guinea pig atrium relative to isoproterenol; settings: Cardiac atrium
# Sequence of Beta-2 adrenergic receptor (Cavia porcellus) (Q8K4Z4 whole entry, looked up): as the sequence (Q8K4Z4 whole entry) above
# Cavia porcellus = species on record: Cavia porcellus; experiment: Selectivity ratio for beta1 adrenoceptor in guinea pig atrium over beta2 adrenoceptor in guinea pig trachea; type: tissue-based; settings: Cardiac atrium
# [6] = molecular target: Beta-1 adrenergic receptor (Cavia porcellus) (UniProt B0FL73); experiment: Partial agonist activity at beta1 adrenoceptor in guinea pig atrium; settings: Cardiac atrium
# [7] = molecular target: Beta-2 adrenergic receptor (Cavia porcellus) (UniProt Q8K4Z4); experiment: Partial agonist at beta2 adrenoceptor in guinea pig trachea
Structure (SMILES),inhibition [1],Kb [2] [nM],Kb [3] [nM],Intrinsic activity [4],Intrinsic activity [5],Selectivity ratio (Cavia porcellus),pD2 [6],pD2 [7]
COc1cc(C)ccc1C(O)CNC(C)C (stereo not given),Active,10,398,0.2,0.2,40,,
CC(C)NCC(O)c1ccc(Br)cc1 (stereo not given),,158,200,,,,,
COc1ccc(Br)cc1C(O)CNC(C)C (stereo not given),,1480,933,,,,,
Cc1ccc(C(O)CNC(C)C)cc1 (stereo not given),,126,316,,,,,
Cc1cccc(C(O)CNC(C)C)c1 (stereo not given),,794,2000,,,,,
COc1ccc(C)cc1C(O)CNC(C)C (stereo not given),,2510,2510,,,,,
COc1cc(Br)ccc1C(O)CNC(C)C (stereo not given),Active,5.75,13.5,0.2,0.2,2,,
COc1ccccc1C(O)CNC(C)C (stereo not given),,617,120,0.5,0.5,,6.3,6.8
CC(C)NCC(O)c1cccc(Br)c1 (stereo not given),,631,1260,,,,,
